# Values of other authors in patent publication US20260284033A1, “COMBINATION THERAPY WITH LP-PLA2 INHIBITOR AND A SECOND AGENT” (SciNeuro Therapeutics Inc., priority 2023, published 2026).
# Key:
# [1] = system: BBB leakage animal models
# [2] = system: AD patients; conditions: phase 2, AD patients
Structure (SMILES),BBB leakage [1],vascular dementia pathology [1],cognitive decline [2],disease biomarkers [2],tolerability [2]
CCN(CC)CCN(Cc1ccc(-c2ccc(C(F)(F)F)cc2)cc1)C(=O)Cn1c(SCc2ccc(F)cc2)nc(=O)c2c1CCC2 [darapladib],reduced BBB leakage,improved vascular dementia pathology,–,–,–
COCCN1CCC(N(Cc2ccc(-c3ccc(C(F)(F)F)cc3)cc2)C(=O)Cn2c(SCc3cccc(F)c3F)cc(=O)c3ccccc32)CC1 [rilapladib],–,–,slowed down cognitive decline,improved disease biomarkers,well tolerated
